# What was measured:
# PC-3 [1] = assay: Cytotoxicity against human PC3 cells after 72 hrs by CellTiter one aqueous solution assay; assay type: functional, cell-based; details: PC-3, 72 h
# PC-3 [2] = assay: Cytotoxicity against human PC3 cells at 0.5 uM after 72 hrs in presence of 41 ug/ml eugenol by CellTiter one aqueous solution assay relative to control; assay type: functional
# HeLa [3] = assay: Growth inhibition of human HeLa cells at 10 uM to 1 mM after 24 hrs by MTT assay relative to control; assay type: functional
# HeLa [4] = assay: Antiproliferative activity against human HeLa cells at 150 uM after 24 hrs by MTT assay relative to control; assay type: functional
# HeLa [5] = assay: Antiproliferative activity against human HeLa cells after 24 hrs by MTT assay relative to control; assay type: functional
# PC-3 [6] = assay: Cytotoxicity against human PC3 cells at 41 ug/ml after 72 hrs in presence of 0.5 uM 2ME2 by CellTiter one aqueous solution assay relative to control; assay type: functional
# Mus musculus [7] = species on record: Mus musculus; assay: Down-regulation of c-Myc mRNA expression in mouse relative to control; assay type: functional
# Mus musculus [8] = species on record: Mus musculus; assay: Down-regulation of H-ras mRNA expression in mouse relative to control; assay type: functional
# HeLa [9] = assay: Antiproliferative activity against human HeLa cells at 15 mM after 24 hrs by MTT assay relative to control; assay type: functional
SMILES,IC50 (PC-3 [1]),Activity (PC-3 [2]),growth inhibition (GI) (HeLa [3]),Activity (HeLa [4]),Activity (HeLa [5]),Activity (PC-3 [6]),Activity (Mus musculus [7]),Activity (Mus musculus [8]),Activity (HeLa [9])
COc1cc2c(cc1O)CC[C@@H]1[C@@H]2CC[C@]2(C)[C@@H](O)CC[C@@H]12 [2-METHOXYESTRADIOL],82 µg/mL,50%,,,,,,,
C=CCc1ccc(O)c(OC)c1 [EUGENOL],1000 nM,,50%,47%,84%,50%,40%,28%,
Nc1ccn([C@@H]2O[C@H](CO)[C@@H](O)C2(F)F)c(=O)n1 [GEMCITABINE],,,,,73%,,,,47%

# Reference: ChEMBL document CHEMBL4406796, “Anti-cancer effects of cinnamon: Insights into its apoptosis effects” (Eur J Med Chem, 2019)
